Active and inactive are the calls of the source.
How the values were obtained:
[1] = NIH-3T3 fibroblast cytotoxicity, dose response, cytotoxicity control, cell-based, fluorescence, Alamar Blue, secondary assay (AID 2327); assay type: functional;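 further: NIH-3T3 mouse fibroblasts cultured with fluconazole at 8 µg/mL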
Aminopeptidase N = biological target: T1, Aminopeptidase N (Plasmodium falciparum FcB1/Columbia, UniProt O96935); assay: P. falciparum M1AAP inhibitors, biochemical, fluorogenic H-Leu-NHMec substrate, 1536-well (AID 1445); parameters: species or system Plasmodium falciparum 3D7, 3D7
T1 sequence (O96935 whole entry): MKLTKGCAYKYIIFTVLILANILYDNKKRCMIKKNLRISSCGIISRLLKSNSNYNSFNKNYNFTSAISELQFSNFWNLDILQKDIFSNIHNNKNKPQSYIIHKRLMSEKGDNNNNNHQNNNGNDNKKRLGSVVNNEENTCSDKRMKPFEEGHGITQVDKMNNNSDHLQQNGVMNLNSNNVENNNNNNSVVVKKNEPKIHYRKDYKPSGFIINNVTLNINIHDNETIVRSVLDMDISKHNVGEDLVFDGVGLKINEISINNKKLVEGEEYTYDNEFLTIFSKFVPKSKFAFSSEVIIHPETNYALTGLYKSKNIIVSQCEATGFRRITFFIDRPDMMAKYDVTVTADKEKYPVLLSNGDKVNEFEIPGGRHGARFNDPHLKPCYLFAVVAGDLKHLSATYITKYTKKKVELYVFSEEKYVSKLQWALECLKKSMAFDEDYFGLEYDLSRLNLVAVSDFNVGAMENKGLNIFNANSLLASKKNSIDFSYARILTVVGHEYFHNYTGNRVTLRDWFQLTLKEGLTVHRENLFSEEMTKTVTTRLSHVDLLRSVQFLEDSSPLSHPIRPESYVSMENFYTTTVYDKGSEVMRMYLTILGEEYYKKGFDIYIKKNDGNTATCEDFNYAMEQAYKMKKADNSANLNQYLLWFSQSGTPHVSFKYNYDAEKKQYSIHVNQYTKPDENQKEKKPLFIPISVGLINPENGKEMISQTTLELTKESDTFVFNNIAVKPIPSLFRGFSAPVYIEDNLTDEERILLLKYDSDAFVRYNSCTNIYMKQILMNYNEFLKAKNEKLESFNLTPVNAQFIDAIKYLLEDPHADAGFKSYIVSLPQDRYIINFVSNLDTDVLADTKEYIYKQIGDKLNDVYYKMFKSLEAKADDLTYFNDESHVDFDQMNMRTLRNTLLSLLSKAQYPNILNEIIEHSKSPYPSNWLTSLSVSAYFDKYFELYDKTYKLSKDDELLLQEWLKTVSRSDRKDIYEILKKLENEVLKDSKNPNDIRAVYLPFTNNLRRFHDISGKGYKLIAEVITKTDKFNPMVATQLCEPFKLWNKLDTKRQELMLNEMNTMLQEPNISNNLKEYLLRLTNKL

[2] = biological target: Peroxisome proliferator-activated receptor gamma/Nuclear receptor coactivator 1 (Homo sapiens, UniProt P37231); assay: (§1) TR-FRET dose response biochemical High Throughput Screening assay for agonists of the steroid receptor coactivator 1 (SRC-1) recruitment by the peroxisome proliferator-activated receptor gamma (PPAR gamma): non-selective agonists. [Related pubchem assays (depositor defined):AID1300, AID1808, AID504735, AID631]; assay type: protein assay
[3] = test system: Streptococcus sp. 'group A'; assay: growth inhibition of control SK(-) GAS strain, dose response, counter-screen for streptokinase expression inhibitor project, luminescence, kanamycin, BacTiterGlo, confirmation (AID 1900); assay type: functional, organism-based
[4] = biological target: Peroxisome proliferator-activated receptor gamma/Nuclear receptor coactivator 3 (Homo sapiens, UniProt P37231); assay: as §1, with “3 (SRC-3)” for “1 (SRC-1)”, “assays: 1301 (Confirmation screen.), 1048 (Primary screen.)]” for “assays (depositor defined):AID1300, AID1808, AID504735, AID631]”; assay type: functional
Streptokinase A = biological target: T2, Streptokinase A (Streptococcus pyogenes serotype M1, UniProt P10520); assay: S. pyogenes streptokinase expression inhibitors, potency, dose response, plasminogen activation absorbance, OD405 (AID 1914); assay type: functional, Streptococcus pyogenes M1 GAS;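 further: secreted streptokinase activity via plasminogen activation per viability signal from cell pellet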
T2 sequence (P10520 whole entry): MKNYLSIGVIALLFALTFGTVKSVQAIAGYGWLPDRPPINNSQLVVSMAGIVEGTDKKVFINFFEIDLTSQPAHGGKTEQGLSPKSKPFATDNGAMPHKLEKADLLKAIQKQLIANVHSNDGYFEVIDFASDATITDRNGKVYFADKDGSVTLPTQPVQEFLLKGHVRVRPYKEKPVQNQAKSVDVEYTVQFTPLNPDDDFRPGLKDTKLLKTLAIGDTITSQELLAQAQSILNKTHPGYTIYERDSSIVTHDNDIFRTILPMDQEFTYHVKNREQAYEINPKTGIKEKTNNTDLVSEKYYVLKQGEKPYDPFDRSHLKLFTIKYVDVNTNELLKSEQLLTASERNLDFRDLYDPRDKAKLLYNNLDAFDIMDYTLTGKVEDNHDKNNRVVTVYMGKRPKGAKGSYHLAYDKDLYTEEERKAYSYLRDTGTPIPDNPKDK

[5] = C. albicans growth with fluconazole, confirmation, fluorescence, retest (AID 2467); assay type: functional, cell-based
[6] = biological target: T3, Serine/threonine-protein phosphatase (Candida dubliniensis (strain CD36 / CBS 7987 / NCPF 3949 / NRRLY-17841) (Yeast), UniProt B9W6M3); assay: calcineurin pathway inhibitors in yeast reporter, dose response, S. cerevisiae, CDRE-lacZ, luminescence, secondary (AID 2388); assay type: functional, cell-based;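 further: yeast reporter cells carrying a calcineurin-responsive lacZ construct stimulated with calcium chloride; luminescent beta-galactosidase reporter signal in whole cells rather than isolated phosphatase activity; potency for inhibition where a drop in reporter signal means calcineurin blockade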
T3 sequence (B9W6M3 whole entry): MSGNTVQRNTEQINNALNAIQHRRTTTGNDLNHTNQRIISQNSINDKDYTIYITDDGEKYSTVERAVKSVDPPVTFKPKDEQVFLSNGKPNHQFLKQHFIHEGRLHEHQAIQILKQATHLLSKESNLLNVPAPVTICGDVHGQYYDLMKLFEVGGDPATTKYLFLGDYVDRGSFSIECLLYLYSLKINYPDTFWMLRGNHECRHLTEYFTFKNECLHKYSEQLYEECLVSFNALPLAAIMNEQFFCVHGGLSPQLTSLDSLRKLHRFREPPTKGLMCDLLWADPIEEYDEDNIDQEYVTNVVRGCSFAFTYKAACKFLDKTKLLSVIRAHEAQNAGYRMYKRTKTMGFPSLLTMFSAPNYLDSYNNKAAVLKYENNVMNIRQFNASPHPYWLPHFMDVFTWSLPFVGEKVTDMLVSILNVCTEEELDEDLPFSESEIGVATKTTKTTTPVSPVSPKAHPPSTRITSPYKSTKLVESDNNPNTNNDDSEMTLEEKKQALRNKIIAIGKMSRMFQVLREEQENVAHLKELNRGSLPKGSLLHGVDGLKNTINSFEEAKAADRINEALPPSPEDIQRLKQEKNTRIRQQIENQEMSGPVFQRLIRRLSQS

[7] = biological target: Peroxisome proliferator-activated receptor gamma/Nuclear receptor coactivator 2 (Homo sapiens, UniProt P37231); assay: TR-FRET dose response biochemical High Throughput Screening assay for agonists of the steroid receptor coactivator 2 (SRC-2) recruitment by the peroxisome proliferator-activated receptor gamma (PPAR gamma): non-selective agonists. [Related pubchem assays: 1297, 1032 ]; assay type: functional
[8] = biological target: Induced myeloid leukemia cell differentiation protein Mcl-1 (Homo sapiens, UniProt Q07820); assay type: functional
Streptococcus = assay: Group A Streptococcus viability loss, dose response, counter-screen for streptokinase expression inhibitor project, luminescence, BacTiterGlo (AID 1915); assay type: functional, organism-based;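 further: potency for reduction of bacterial viability or growth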
Vero = Vero cell cytotoxicity, cytotoxicity control for flavivirus capping enzyme inhibitors (AID 588742); assay type: functional; conditions: Chlorocebus sabaeus
Genome polyprotein = Genome polyprotein (dengue virus type 2, UniProt P29990); assay: Dengue-2 NS5 methyltransferase inhibitors, primary screen, biochemical, confirmation dose response (AID 588689); assay type: functional
[9] = biological target: ATP-dependent molecular chaperone HSP82 (Candida albicans (strain WO-1) (Yeast), UniProt C4YTQ8); assay: loss of DOC-induced GRE-beta-galactosidase reporter signal, dose response, Hsp90 inhibitor project, S. cerevisiae, luminescence (AID 2400); assay type: functional, cell-based;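 further: beta-galactosidase luminescence from glucocorticoid response element reporter as proxy for Hsp90 function; inhibitor potency where signal loss means Hsp90 inhibition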
[10] = biological target: T4, Probable nicotinate-nucleotide adenylyltransferase (Staphylococcus aureus (strain N315), UniProt P65502); assay type: functional, Staphylococcus aureus subsp. aureus N315;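 on IC50 Mean: confirmatory dose-response retesting of NadD inhibitor hits first found in an ultra-high-throughput screen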
[11] = biological target: T4, Probable nicotinate-nucleotide adenylyltransferase; assay type: functional, Staphylococcus aureus subsp. aureus N315; conditions: read-out: IC50_Mean
Escherichia coli = assay: microbe, parasite or virus in culture
[12] = biological target: T5, Voltage-gated N-type calcium channel alpha-1B subunit/Amyloid beta A4 precursor protein-binding family A member 1 (Homo sapiens, UniProt Q00975+Q02410); assay type: protein assay
[13] = HIV-1 Env-mediated cell fusion inhibitors, dose response, CCR5-tropic Env (AID 2279); assay type: functional
[14] = biological target: T5, Voltage-gated N-type calcium channel alpha-1B subunit/Amyloid beta A4 precursor protein-binding family A member 1; assay type: protein assay; remark: listed apart in the source
[15] = biological target: T6, Long-chain-fatty-acid--AMP ligase FadD28 (Mycobacterium tuberculosis, UniProt P9WQ59); assay: Fluorescence polarization aasay to screen for inhibitors that compete for the binding of FadD28 to a bisubstrate Measured in Biochemical System Using Plate Reader - 2147-01_Inhibitor_Dose_CherryPick_Activity.; assay type: functional, Mycobacterium tuberculosis H37Rv
T6 sequence (P9WQ59 whole entry): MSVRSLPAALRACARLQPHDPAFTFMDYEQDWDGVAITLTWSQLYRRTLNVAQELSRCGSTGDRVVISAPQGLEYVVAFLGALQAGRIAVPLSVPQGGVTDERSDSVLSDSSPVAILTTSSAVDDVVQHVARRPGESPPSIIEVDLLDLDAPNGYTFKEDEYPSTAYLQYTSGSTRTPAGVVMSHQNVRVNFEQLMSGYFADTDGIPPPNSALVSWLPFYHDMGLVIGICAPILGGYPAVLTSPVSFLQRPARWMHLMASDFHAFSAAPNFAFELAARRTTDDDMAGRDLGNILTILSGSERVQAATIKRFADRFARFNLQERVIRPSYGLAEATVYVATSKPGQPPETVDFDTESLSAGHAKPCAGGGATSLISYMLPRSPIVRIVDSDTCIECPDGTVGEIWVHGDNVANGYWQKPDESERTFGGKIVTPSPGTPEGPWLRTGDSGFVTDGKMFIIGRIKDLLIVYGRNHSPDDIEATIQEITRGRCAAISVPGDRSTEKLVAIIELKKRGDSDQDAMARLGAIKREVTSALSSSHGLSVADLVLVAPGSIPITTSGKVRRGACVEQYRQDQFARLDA

[16] = biological target: T7, E3 ubiquitin-protein ligase XIAP (Homo sapiens, UniProt P98170); assay: Counter Screen using XIAP-Bir3 for Chemical Antagonists of Bir1/2 domains of IAP-family anti-apoptotic proteins. [Related pubchem assays (depositor defined):AID1018, AID1449, AID1514, AID1638, AID1749, AID1750, AID488957, AID488963]
[17] = biological target: T7, E3 ubiquitin-protein ligase XIAP; assay: XIAP antagonists, biochemical, IAP family, fluorescence polarization (AID 1018); assay type: functional
[18] = biological target: T5, Voltage-gated N-type calcium channel alpha-1B subunit/Amyloid beta A4 precursor protein-binding family A member 1; assay: disruptors of Mint-PDZ/N-type channel peptide interaction – biochemical, HTRF, SAR follow-up (AID 2489); assay type: functional
[19] = biological target: Intestinal-type alkaline phosphatase (Homo sapiens, UniProt P09923); assay: human intestinal alkaline phosphatase activators, dose response, biochemical, luminescence, uHTS hits (AID 463120); assay type: functional

T5 sequence (Q00975 whole entry, the tested form may be a part): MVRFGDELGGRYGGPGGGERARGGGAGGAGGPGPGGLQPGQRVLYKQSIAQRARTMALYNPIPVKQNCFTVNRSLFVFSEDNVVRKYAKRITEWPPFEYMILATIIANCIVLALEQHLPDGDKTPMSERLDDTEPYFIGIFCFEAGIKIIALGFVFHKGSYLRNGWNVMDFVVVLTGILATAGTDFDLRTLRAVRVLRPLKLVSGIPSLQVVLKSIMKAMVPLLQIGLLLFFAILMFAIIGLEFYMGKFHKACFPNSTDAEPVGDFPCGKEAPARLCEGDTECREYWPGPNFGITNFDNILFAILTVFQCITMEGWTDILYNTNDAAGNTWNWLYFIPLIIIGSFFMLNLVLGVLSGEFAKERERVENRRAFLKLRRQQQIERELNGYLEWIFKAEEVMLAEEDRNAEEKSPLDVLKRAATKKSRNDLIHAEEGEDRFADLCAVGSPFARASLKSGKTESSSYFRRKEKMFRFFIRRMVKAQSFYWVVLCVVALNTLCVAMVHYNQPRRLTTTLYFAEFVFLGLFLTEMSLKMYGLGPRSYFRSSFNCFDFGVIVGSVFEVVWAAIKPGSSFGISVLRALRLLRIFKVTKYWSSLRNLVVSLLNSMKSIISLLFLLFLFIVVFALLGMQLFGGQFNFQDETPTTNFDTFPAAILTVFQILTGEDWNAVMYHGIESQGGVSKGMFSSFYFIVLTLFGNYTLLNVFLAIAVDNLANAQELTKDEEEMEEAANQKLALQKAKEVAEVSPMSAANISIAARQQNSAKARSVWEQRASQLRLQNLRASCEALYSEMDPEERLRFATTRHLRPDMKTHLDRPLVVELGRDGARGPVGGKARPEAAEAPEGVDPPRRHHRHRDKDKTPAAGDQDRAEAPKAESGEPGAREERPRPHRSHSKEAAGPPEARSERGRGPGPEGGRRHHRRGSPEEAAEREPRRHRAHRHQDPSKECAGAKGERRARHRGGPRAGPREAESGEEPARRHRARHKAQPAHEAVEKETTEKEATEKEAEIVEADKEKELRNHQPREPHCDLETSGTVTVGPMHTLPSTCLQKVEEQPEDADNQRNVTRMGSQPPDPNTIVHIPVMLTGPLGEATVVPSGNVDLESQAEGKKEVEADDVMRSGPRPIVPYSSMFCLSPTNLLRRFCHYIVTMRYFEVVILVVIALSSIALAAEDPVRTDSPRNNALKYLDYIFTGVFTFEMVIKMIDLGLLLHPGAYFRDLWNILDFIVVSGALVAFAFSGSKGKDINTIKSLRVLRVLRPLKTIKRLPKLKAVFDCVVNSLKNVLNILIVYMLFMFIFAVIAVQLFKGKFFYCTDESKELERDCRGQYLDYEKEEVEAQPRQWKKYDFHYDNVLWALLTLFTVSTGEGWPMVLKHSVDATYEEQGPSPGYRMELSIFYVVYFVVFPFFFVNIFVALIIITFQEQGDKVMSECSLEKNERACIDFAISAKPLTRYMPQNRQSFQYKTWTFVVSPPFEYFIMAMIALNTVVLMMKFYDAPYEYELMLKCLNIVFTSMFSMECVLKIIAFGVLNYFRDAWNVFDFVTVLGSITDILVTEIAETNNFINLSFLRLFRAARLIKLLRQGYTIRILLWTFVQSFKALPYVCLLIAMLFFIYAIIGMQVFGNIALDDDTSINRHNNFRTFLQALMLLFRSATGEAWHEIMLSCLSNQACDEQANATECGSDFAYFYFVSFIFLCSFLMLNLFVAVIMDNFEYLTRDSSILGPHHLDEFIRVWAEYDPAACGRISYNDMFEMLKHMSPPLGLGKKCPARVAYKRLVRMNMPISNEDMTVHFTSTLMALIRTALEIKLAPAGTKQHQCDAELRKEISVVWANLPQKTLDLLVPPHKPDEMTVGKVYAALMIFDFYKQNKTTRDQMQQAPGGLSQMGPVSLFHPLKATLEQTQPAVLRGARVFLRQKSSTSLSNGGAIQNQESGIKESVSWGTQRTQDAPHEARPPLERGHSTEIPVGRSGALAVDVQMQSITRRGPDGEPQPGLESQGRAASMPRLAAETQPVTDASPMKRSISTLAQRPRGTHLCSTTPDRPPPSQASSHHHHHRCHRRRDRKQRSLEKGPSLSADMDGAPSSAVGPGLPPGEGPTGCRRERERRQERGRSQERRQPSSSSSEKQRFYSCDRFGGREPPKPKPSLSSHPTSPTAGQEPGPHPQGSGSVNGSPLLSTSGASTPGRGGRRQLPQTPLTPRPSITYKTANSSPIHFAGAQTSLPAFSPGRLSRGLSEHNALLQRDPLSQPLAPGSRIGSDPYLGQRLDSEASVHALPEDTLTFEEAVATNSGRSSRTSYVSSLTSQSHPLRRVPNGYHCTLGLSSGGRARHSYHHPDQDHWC
T5 sequence (Q02410 whole entry, the tested form may be a part): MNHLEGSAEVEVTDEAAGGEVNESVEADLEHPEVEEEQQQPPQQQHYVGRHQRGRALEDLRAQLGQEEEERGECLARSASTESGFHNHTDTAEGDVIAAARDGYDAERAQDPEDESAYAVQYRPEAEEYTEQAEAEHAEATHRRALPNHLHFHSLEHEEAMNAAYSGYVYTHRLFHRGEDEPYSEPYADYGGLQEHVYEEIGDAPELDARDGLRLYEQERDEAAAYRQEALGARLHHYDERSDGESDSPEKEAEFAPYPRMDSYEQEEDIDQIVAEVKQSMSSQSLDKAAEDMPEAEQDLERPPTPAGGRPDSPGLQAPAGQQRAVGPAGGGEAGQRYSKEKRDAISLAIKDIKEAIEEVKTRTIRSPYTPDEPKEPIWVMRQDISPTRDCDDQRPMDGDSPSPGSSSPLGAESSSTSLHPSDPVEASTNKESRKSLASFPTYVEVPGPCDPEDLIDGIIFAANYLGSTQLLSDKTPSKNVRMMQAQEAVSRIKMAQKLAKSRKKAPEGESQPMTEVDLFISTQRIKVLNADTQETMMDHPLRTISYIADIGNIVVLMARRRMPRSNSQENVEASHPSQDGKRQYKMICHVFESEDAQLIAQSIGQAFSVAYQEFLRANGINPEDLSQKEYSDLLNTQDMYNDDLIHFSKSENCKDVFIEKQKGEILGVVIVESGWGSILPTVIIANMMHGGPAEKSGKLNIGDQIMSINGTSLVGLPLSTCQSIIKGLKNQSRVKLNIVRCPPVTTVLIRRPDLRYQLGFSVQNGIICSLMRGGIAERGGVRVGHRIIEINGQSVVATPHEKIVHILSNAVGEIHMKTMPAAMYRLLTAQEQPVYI
T7 sequence (P98170 whole entry): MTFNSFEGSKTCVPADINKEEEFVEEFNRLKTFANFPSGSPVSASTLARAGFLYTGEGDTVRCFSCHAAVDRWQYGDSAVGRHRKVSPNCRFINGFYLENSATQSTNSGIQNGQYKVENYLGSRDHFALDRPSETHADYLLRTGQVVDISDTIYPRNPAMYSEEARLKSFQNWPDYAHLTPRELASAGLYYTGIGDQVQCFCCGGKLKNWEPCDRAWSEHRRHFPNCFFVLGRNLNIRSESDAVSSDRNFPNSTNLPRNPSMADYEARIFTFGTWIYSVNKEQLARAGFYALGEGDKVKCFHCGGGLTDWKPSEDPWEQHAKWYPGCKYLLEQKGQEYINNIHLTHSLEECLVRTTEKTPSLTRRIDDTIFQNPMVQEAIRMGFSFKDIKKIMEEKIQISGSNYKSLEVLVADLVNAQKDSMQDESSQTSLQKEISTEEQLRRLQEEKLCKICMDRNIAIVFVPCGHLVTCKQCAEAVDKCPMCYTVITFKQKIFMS
T4 sequence (P65502 whole entry): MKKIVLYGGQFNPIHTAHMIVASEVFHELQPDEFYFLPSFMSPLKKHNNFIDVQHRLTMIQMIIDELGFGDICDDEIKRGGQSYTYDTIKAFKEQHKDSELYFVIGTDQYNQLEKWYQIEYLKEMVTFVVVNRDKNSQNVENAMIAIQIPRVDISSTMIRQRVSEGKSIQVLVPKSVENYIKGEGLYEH
Induced myeloid leukemia cell differentiation protein Mcl-1, sequence (Q07820 whole entry): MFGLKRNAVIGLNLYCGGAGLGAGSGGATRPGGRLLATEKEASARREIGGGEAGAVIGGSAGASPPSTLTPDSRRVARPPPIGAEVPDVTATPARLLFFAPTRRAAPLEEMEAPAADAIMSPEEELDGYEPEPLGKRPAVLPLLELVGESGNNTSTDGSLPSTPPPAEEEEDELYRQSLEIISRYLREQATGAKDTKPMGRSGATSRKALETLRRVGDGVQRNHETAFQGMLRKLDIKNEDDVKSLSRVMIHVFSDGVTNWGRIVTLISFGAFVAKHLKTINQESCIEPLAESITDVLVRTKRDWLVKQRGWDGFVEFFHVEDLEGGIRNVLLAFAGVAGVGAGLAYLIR
ATP-dependent molecular chaperone HSP82, sequence (C4YTQ8 whole entry): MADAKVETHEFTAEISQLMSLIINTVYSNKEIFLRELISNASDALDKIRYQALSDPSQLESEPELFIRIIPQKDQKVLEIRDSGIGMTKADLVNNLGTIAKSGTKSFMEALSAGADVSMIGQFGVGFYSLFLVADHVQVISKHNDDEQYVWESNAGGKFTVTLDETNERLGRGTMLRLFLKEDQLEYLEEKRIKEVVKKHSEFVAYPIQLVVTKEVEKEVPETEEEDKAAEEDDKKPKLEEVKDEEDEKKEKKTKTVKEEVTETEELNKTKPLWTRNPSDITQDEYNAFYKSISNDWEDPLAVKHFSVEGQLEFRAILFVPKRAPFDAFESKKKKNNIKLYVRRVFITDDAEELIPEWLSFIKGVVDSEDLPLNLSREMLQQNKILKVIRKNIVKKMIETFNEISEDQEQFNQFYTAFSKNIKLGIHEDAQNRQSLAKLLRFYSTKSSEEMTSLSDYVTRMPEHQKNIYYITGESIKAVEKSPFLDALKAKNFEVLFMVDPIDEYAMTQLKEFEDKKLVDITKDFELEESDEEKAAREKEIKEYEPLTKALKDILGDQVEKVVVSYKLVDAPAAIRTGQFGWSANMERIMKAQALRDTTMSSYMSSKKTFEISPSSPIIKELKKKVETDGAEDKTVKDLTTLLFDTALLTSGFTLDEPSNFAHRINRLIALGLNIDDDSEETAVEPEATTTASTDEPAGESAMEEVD

Compound: Cc1ccc(N2C(=O)/C(=C\Nc3ccccc3-c3nnc(S)nc3O)c3ccccc3C2=O)cc1C
- EC50 [1]: 16 µM (inconclusive)
- IC50 (Aminopeptidase N): 39.2 µM (active)
- EC50 [2]: 26.6 µM (inactive)
- EC50 [3]: 0.798 µM (active)
- EC50 [4]: > 79.4 µM (not active)
- EC50 (Streptokinase A): > 150 µM (not active)
- EC50 [5]: 0.262 µM (active)
- EC50 [6]: > 180 µM (inactive)
- EC50 [7]: 13.2 µM (not active)
- IC50 [8]: 3.26 µM (active)
- EC50 (Streptococcus): 13.8 µM (active)
- CC50 (Vero): > 40 µM (active)
- IC50 (Genome polyprotein): 31.5 µM (active)
- EC50 [9]: 23 µM (active)
- IC50 [10]: 3.94 µM (active)
- IC50 [11]: 11.2 µM (active)
- AC50 (Escherichia coli): 33.6 µM (active)

Compound: O=C(CSc1ncnc2c1oc1ccccc12)NCc1ccc(F)cc1
- EC50 [2]: 21.9 µM (inactive)
- EC50 [4]: 83.1 µM (not active)
- EC50 [7]: 20.5 µM (not active)

Compound: Cc1c2c(=O)n(-c3nc4ccccc4s3)nc-2cc(O)n1Cc1ccccc1
- IC50 [12]: 3.01 µM (active)
- IC50 [13]: 17.4 µM (active)
- IC50 [14]: > 50 µM (inactive)
- IC50 [8]: 4.32 µM (active)
- AC50 [15]: 20.5 µM (active)

Compound: Nc1ncnc(Sc2ccc(Cl)cc2)c1[N+](=O)[O-]
- IC50 [16]: > 100 µM (inactive)
- IC50 [17]: > 100 µM (not active)

Compound: COc1cc2cnc(Cl)nc2cc1OC
- IC50 [16]: > 100 µM (inactive)
- IC50 [17]: > 100 µM (not active)

Compound: Cc1ccc(/C=C/C(=O)N2CCN(c3ncccn3)CC2)o1
- IC50 [12]: 4.71 µM (active)
- IC50 [14]: 4.77 µM (active)
- IC50 [18]: > 56.8 µM (inactive)

Compound: O=C(CSc1nc[nH]n1)NCCc1ccccc1
- EC50 [19]: > 100 µM (inactive)

From ChEMBL document CHEMBL1201862, “PubChem BioAssay data set” (2004)
